Entries after “also recorded” stand apart in the source; their conditions may differ.
How the values were obtained:
[1] = biological target: T1, hOR17-4 Rezeptor der vollen Länge (Homo sapiens, UniProt P34982); test: Ca2+ imaging of HEK293 cells expressing full-length receptor (pOR17-4v); type: cell-based
T1 construct: wurde der Rezeptor hOR17-4 in seiner vollen Länge wie in Beispiel 3 beschrieben kloniert; expressed in transfected cells; host or cells: HEK293, transient, plasmid pOR17-4v (pRC/CMV)
T1 sequence (P34982 1-312): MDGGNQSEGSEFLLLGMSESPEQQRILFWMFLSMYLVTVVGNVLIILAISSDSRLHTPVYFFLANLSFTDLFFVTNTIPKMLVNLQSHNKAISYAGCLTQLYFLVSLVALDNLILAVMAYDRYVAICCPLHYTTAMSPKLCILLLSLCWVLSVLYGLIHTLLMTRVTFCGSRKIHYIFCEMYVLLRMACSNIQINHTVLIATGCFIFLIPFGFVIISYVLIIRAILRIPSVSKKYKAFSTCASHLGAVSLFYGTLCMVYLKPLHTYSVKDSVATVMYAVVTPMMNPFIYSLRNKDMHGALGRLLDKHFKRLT
Excerpt: Um einen Expressionsvektor für das gesamte hOR17-4-Gen ohne geänderte Aminosäuresequenz zu erhalten, wurde das 982 bp lange PCR-Produkt (SEQ ID NO. 3, Herstellung vergleiche Beispiel 2) über stumpfe Enden in den Hindlll/Xbal verdauten Vektor pRC/CMV (Invitrogen, Carlsbad, CA), dessen überhängende Enden mit Klenow-Enzym aufgefüllt worden waren, einkloniert.
HEK293-Zellen wurden in MEM (Life Technologies, Gaithersburg, MD), das mit 10 % hitze-inaktiviertem fetalem Kälber-Serum angereichert war, in einem Inkubator bei 37 °C in einer Atmosphäre aus 95 % befeuchteter Luft und 5 % CO2 kultiviert. Semikonfluente Zellen wurden in 35 mm Gefäßen (Falcon) mittels Calciumphosphat-Präzipitation (Zufall et al., PNAS 90 (1993), 9335-9339) unter Verwendung jeweils des Plasmids pOR17-4 bzw. pOR17-4v transfiziert. […]
Die Ca^2+-imaging-Experimente wurden auf dem Träger eines invertierten Zeiss-Mikroskopes durchgeführt, das für die ratiofluorometrische Bildgebung mit einer Xenon-Bogenlampe, einem Vielfach-Wellenlängen-Illuminations-System POLYCH-ROM II zur Anregung, einer gekühlten charge-coupled device (CCD)-Kamera und einer WinNT-basierten T.I.L.L.-Vision-Software zum Sammeln und raum- und zeitabhängigen Quantifizieren Ca^2+-abhängiger Fluoreszenz-Signale (F340/F380-Verhältnis) ausgestattet war. […]

humane Spermien = test: Ca2+ imaging of head and midpiece of single human spermatozoa; type: cell-based
Excerpt: (§1) Die Ca^2+-imaging-Experimente wurden auf dem Träger eines invertierten Zeiss-Mikroskopes durchgeführt, das für die ratiofluorometrische Bildgebung mit einer Xenon-Bogenlampe, einem Vielfach-Wellenlängen-Illuminations-System POLYCH-ROM II zur Anregung, einer gekühlten charge-coupled device (CCD)-Kamera und einer WinNT-basierten T.I.L.L.-Vision-Software zum Sammeln und raum- und zeitabhängigen Quantifizieren Ca^2+-abhängiger Fluoreszenz-Signale (F340/F380-Verhältnis) ausgestattet war. HEK293-Zellen wurden mit 32-facher, Spermazellen mit 63-facher Vergrößerung beobachtet.
(§2) HEK293- und Spermazellen wurden unter Verwendung eines speziellen Applikations-Systems, das es gestattete, vorübergehend alle Zellen im Blickfeld aus einem von sechs benutzergewählten Kapillarröhrchen zu überspülen, Geruchs- und/oder Wirkstoffen (Testlösungen) ausgesetzt. Der Wechsel zwischen den Testlösungen erfolgte nahezu sofort; auch trat im Wesentlichen keine Wirkungsverzögerung nach dem Wechsel auf, weil die Röhrchenspitzen zum optischen Feld eng benachbart waren. Zwischen den Applikationen von Testlösungen überspülte ein Pufferlösungsstrom kontinuierlich alle Zellen im Gefäß, um jedwede potentielle Hintergrund-Anreicherung von Testlösungen (Geruchs- bzw. Wirkstoffen) zu minimieren. Alle Lösungen wurden bei Raumtemperatur appliziert. Alle verwendeten Geruchsstoffe stammten von Dr. T. Gerke, Henkel KGaA, Düsseldorf, FRG, andere Wirkstoffe wurden von Sigma gekauft. Zur Zusammensetzung der Henkel 100-Mischung vergleiche C. H. Wetzel et al., Journal of Neuroscience 19, 7426-7433 (1999).
Die mögliche Rolle von hOR17-4 in einem Ca^2+-vermittelten physiologischen Prozess in humanen Spermatozoen (z.B. Acrosomreaktion, Kapazitationsprozess oder Änderungen zur hyperaktivierten Beweglichkeit) wurden durch Ca^2+-Imaging der Kopf- und der Mittelregion von einzelnen humanen Spermien untersucht. Dazu wurden frisch von jungen, gesunden Spendern erhaltene humane Spermien unverzüglich in 1,5-ml Plastikröhrchen transferiert. Nach 30 minütiger aufrechter Inkubation bei 37 °C wurden 75 µl beweglicher Spermien aus der oberen Schicht der Spermiensuspension auf Concanavalin A-beschichtete 35 mm Petrischalen transferiert und 45 Minuten lang bei Raumtemperatur in 1 ml Ladungspuffer (pH 7,4) mit 140 mM NaCl, 5 mM KCI, 2 mM CaCl2, 2 mM MgCl2, 10 mM Hepes, 10 mM Glucose, 5 µM Fura-2-AM (Molecular Probes), and 0,1 % Pluronic F-127 inkubiert. Danach wurde das Medium sanft durch Fura-2-AM-freie Pufferlösung ausgewechselt. Nicht an den Boden angeheftetes Sperma wurde durch diesen Schritt entfernt. Ca^2+-Bilder wurden von 8 bis 15 Spermatozoen in einem zufällig gewählten Sichtfeld aufgenommen. Die Fluoreszenzsignale eines Spermienkopfes und der Mittelregion wurden gemessen. […]

hOR17-4 = test: Ca2+ imaging (Fura-2) of HEK293 cells transiently transfected with pOR17-4 (chimeric receptor); type: cell-based, human
Excerpt: Es wird vermutet, dass die Transmembrandomänen III-VI eine Bindungstasche zum Binden von Agonisten bilden (s. S. Firestein, Nature 413, 211-218 (2001)). Um diese Vermutung für den Rezeptor hOR17-4 zu überprüfen wurde ein für die vermuteten Transmembrandomänen III bis VI codierender Abschnitt der für hOR17-4 codierenden cDNA in einem Shuttle-Expressions-Vektor (pOLF-Express) kloniert. Der Expressionsvektor pOLF-Express umfasst die für die N- und C-terminalen Regionen von hOR17-40 codierenden DNA-Abschnitte (C. H. Wetzel et al., Journal of Neuroscience 19, 7426-7433 (1999)). Das resultierende chimäre Rezeptorprotein sollte die Agonistenspezifität des vollständigen Rezeptors hOR17-4 besitzen.
HEK293-Zellen wurden in MEM (Life Technologies, Gaithersburg, MD), das mit 10 % hitze-inaktiviertem fetalem Kälber-Serum angereichert war, in einem Inkubator bei 37 °C in einer Atmosphäre aus 95 % befeuchteter Luft und 5 % CO2 kultiviert. Semikonfluente Zellen wurden in 35 mm Gefäßen (Falcon) mittels Calciumphosphat-Präzipitation (Zufall et al., PNAS 90 (1993), 9335-9339) unter Verwendung jeweils des Plasmids pOR17-4 bzw. pOR17-4v transfiziert. Die Transfektionseffizienz - typischerweise 10 % - wurde histochemisch mit dem Reporterplasmid pCH110 (Pharmacia, Uppsala, Schweden) überprüft, das für β-Galactosidase codiert. Messungen wurden 48 bis 72 Stunden nach der Transfektion durchgeführt. Die Transfektionseffizienz kann mit einem für GFP, einem grün fluoreszierenden Protein, codierenden Reporterplasmid ebenfalls überprüft werden.
Die Rezeptor-Aktivierung in HEK293-Zellen führt zu einem vorübergehenden Anstieg der cytosolischen Ca^2+-Konzentration, die auf der Einzelzell-Ebene unter Verwendung des Ca^2+-sensitiven Farbstoffes Fura-2 (Fura-2 AM, Molecular Probes Europe BV, Leiden, Niederlande; Ladekonzentration 3-4 µg/ml; Ladezeit ca. 30 min) und ratiofluorometrischen Bildgebungstechniken (Imaging-Experimente) detektiert wurden.
as §1, §2
Alle auf die potentielle Aktivierung von hOR17-4 untersuchten Geruchsstoffe wurden wenigstens in drei verschiedenen Reihen von Transfektionsexperimenten getestet. […] Geruchsstoffe, die nicht in wenigstens 2 % aller HEK293-Zellen messbare Ca^2+-Konzentrationssteigerung auslösten, wurden nicht zu den hOR17-4-spezifischen Agonisten gezählt, ebenso diejenigen wenigen der untersuchten Komponenten, die ein unspezifisches Ca^2+-Signal in fast jeder Zelle hervorriefen. […]

| SMILES | Inhibition der Bourgeonal-Antwort ([1]; 30 to 60 s pre-incubation of the cells) | Blockade der Ca^2+-Antworten auf Bourgeonal (humane Spermien; co-application at same concentration as Bourgeonal, with or without pre-incubation, n = 10) | Zellen, die auf Bourgeonal antworteten, mit vollständig inhibierter Rezeptoraktivierung (hOR17-4; pre-incubation 30 s or longer before Bourgeonal) [von 28] | Einfluss auf die hOR17-4-Rezeptoraktivierung durch Bourgeonal (hOR17-4; single components of Mix D, pre-incubation) | Aktivierung des vollständigen Rezeptors hOR17-4 [1] | vorübergehende Ca^2+-Antworten, Anteil aller getesteten Spermatozoen (humane Spermien; 5 s application, 43 of 119 spermatozoa, 12 experiments) [%] | Schwellenwert (Konzentration für Ca^2+-Antwort) (humane Spermien; about two orders of magnitude lower than for recombinant receptor) | Effizienz (Reihenfolge der Agonisten) in Spermien (humane Spermien; direct comparison in the same sperm) | Induktion einer Ca^2+-Konzentrationssteigerung (hOR17-4; agonist concentration reduced to 10^-6 M) | Wirksamkeit (Rangordnung der Agonisten) (hOR17-4; ranking by amplitude normalised to ATP and by responding cells relative to Cyclamal ca. 5 mM) | Rezeptoraktivierung (Ca^2+-Antwort) (hOR17-4; single odorant about 500 µM, pOR17-4-transfected HEK293 cells) |
| --- | --- | --- | --- | --- | --- | --- | --- | --- | --- | --- | --- |
| CCCCCCCCCCC=O [n-Undecanal] | inhibiert | blockierte vollständig | 26 | vollständig inhibiert | – | – | – | – | – | – | – |
| CC(C)(C)c1ccc(CCC=O)cc1 [Bourgeonal] | – | – | – | – | aktivierte deutlich | 36 | ≥ 10^-8 M | potentesten getesteten Liganden | deutlich | wirksamere Agonisten; also recorded: der wirksamste getestete Agonist | Fähigkeit der Substanzen, den Rezeptor zu aktivieren |
